Patent publication US20180168208A1 (priority 2014, published 2018)
Structures can show the parent of a compound that is named as a salt. Where two headings read alike, the source gives them in different places.

Tests used:
[1] = biological target: T1R1/T1R3 receptor (Felis catus, UniProt E3UMS2); experiment: cell-based; settings: for Max resp % of Ala, +IMP (0.2 mM): in the presence of 0.2 mM IMP, relative to alanine; for Thres (mM), +IMP (0.2 mM): threshold concentration in the presence of 0.2 mM IMP
Text: (§1) HEK293 cells that stably express T1R3 and inducibly express T1R1 were exposed to nucleotide derivatives alone to activate the umami receptor. Activation of the T1R1/T1R3 receptor was detected by a change in intracellular calcium levels using a calcium sensitive fluorescent dye. Cells that express T1R3 but not T1R1 were used as a control. A FLIPR® Tetra or a FlexStation® 3 was used for data capture.
as §1, with “alone or in combination with one or more amino acids and/or one or more nucleotides” for “alone”, “dye and/or a luminescent reporter system.” for “dye.”
as §1, with “transmembrane compounds” for “nucleotide derivatives”, “alone or in combination with one or more amino acids and/or one or more nucleotides” for “alone”
In each experiment, serial dilutions of up to 10 mM of the transmembrane compound were added to the T1R1/T1R3-expressing cells.

[2] = biological target: T1, cat T1R1/T1R3 receptor (Felis catus, UniProt A0ABI7Z2I4); experiment: cell-based; settings: for function as activators of T1R1/T1R3 (in words): in the presence of alanine
T1 sequence (A0ABI7Z2I4 171-420): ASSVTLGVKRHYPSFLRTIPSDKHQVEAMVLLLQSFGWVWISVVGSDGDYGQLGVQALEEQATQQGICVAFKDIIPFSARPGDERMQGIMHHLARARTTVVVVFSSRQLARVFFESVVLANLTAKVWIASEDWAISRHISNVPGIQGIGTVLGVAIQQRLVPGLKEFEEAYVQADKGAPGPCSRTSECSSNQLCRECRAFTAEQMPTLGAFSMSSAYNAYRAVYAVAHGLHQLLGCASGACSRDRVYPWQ
T1 sequence (Q49KI5 25-865 E206Q/N523D/F654L partner): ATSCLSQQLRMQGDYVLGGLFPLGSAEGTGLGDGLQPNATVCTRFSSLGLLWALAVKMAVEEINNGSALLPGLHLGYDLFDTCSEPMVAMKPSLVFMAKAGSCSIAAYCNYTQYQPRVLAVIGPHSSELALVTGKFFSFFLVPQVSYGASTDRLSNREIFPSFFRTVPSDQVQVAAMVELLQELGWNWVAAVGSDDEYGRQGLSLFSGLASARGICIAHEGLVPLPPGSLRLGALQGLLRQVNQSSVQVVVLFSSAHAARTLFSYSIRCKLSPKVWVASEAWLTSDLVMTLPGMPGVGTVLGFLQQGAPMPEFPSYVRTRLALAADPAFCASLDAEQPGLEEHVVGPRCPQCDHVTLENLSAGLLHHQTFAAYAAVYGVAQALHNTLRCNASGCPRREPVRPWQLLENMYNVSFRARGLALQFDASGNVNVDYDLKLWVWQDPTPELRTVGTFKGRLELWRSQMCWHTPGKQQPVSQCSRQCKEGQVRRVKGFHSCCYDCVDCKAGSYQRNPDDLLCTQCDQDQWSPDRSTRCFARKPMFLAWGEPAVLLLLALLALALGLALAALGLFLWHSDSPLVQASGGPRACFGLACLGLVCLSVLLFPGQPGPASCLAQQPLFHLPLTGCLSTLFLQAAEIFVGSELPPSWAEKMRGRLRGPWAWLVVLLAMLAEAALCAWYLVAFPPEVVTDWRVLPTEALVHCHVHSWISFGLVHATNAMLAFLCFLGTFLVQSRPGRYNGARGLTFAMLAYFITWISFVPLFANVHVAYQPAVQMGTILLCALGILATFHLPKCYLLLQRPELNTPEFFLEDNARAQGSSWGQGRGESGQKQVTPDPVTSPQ
Text: as §1, with “alone or in combination with one or more amino acids and/or one or more nucleotides” for “alone”, “dye and/or a luminescent reporter system.” for “dye.”

[3] = threshold amount that results in activation of T1R1/T1R3, 20 mM alanine

O=C(O)C1CCCCC1C(=O)Nc1cc(Cl)cc(Cl)c1 (centres unmarked)
EC50 [1]: 0.49 ± 0.01 mM | EC50 ([1]; T1R1/T1R3 EC50 +0.2 mM IMP, +0.2 mM IMP): 0.18 ± 0.01 mM | EC50 ([1]; alone in buffer, read-out: T1R1/T1R3 EC50 alone in buffer): 0.37 ± 0.05 mM

CC(C)CC(NC(=O)c1ccccc1)C(N)=O (racemic)
Max resp % of IMP, +Alanine (20 mM) [1]: 125.5% | Thres (mM), +Alanine (20 mM) [1]: 0.3 mM | EC50 ([1]; EC50 (mM), +Alanine (20 mM) + IMP (0.2 mM), in the presence of 20 mM alanine and 0.2 mM IMP): 0.91 mM | Max resp % of Ala, +IMP (0.2 mM) [1]: 204.5% | Thres (mM), +IMP (0.2 mM) [1]: 0.1 mM

O=C(O)C1CCCCC1C(=O)Nc1cc(Cl)cc(Cl)c1 (centres unmarked) [2-((3,5-dichlorophenyl)carbamoyl)cyclohexanecarboxylic acid]
Max resp % of IMP, +Alanine (20 mM) [1]: 163.5% | Thres (mM), +Alanine (20 mM) [1]: 0.1 mM | Max resp % of Ala, +IMP (0.2 mM) [1]: 157.9% | Thres (mM), +IMP (0.2 mM) [1]: 0.03 mM

Nc1nc2c(ncn2[C@@H]2O[C@H](COP(=O)(O)O)[C@@H](O)[C@H]2O)c(=S)[nH]1 [6-Thiogaunosine-5′-O-monophosphate]
Max resp. (ΔF/F) [2]: 1.3614 ΔF/F | Max. resp. % of IMP [2]: 140.6 % of IMP

Nc1nc2c(ncn2[C@@H]2O[C@H](COP(=O)(O)OP(=O)(O)O)[C@@H](O)[C@H]2O)c(=S)[nH]1 [6-Thioguanosine-5′-O-disphosphate]
Threshold [2]: 0.03 mM

Nc1nc2c(ncn2[C@@H]2O[C@H](COP(=O)(O)O)[C@@H](O)[C@H]2O)c(=S)[nH]1 [6-Thioguanosine-5′-O-monophosphate]
Activity [2]: active

O=P(O)(O)OCC1OC(n2cnc3c(Cl)ncnc32)C(O)C1O (centres unmarked) [6-chloropurineriboside-5′-O-monophosphate]
EC50 [2]: 2 µM | Threshold [2]: 0.0005 mM | function as activators of T1R1/T1R3 (in words) [2]: activators of the T1R1/T1R3 receptor

Nc1nc2c(ncn2[C@@H]2O[C@H](COP(=O)(O)O)[C@@H](O)[C@H]2O)c(=S)[nH]1 [6-thioguanosine-5′-O-monophosphate]
EC50 [2]: 0.9 µM | Threshold [2]: 0.0002 mM | function as activators of T1R1/T1R3 (in words) [2]: activators of T1R1/T1R3

Nc1nc2c(nc(Br)n2[C@@H]2O[C@H](COP(=O)(O)O)[C@@H](O)[C@H]2O)c(=O)[nH]1 [8-Bromoguanosine-5′-O-monophosphate]
Activity [2]: active | Max resp. (ΔF/F) [2]: 0.375 ΔF/F | Max. resp. % of IMP [2]: 30.2 % of IMP | Threshold [2]: 1 mM

Nc1ncnc2c1nc(Cl)n2[C@@H]1O[C@H](COP(=O)(O)O)C(O)C1O (some centres unmarked) [8-Chloroadenosine-5′-O-monophosphate]
Max resp. (ΔF/F) [2]: 0.79 ΔF/F | Max. resp. % of IMP [2]: 63.6 % of IMP | Threshold [2]: 0.2 mM | Activity ([2]; +Alanine (20 mM)): active

Nc1ncnc2c1ncn2C1OC(COP(=O)(O)O)C(OP(=O)(O)O)C1O (centres unmarked) [Adenosine 3′,5′-diphosphate sodium salt, adenosine 3′, 5′ diphosphate sodium salt]
Activity [2]: active | Threshold [2]: 0.00025 mM

Nc1ncnc2c1ncn2C1OC(COP(=O)(O)OS(=O)(=O)O)C(O)C1O (centres unmarked) [Adenosine 5′-phosphosulfate sodium salt, Adenosine 5′-phosphosulfate]
Threshold [2]: 0.008 mM

Nc1ncnc2c1ncn2[C@@H]1O[C@H](COP(O)(O)=S)[C@@H](O)[C@H]1O [Adenosine-5′-O-monophosphorothioate]
Activity [2]: active | EC50 [2]: 11 µM | Threshold [2]: 0.003 mM

Nc1nc2c(ncn2[C@@H]2O[C@H](COP(=O)(O)OP(=O)(O)O)[C@@H](O)[C@H]2O)c(=O)[nH]1 [Guanosine 5′-diphosphate sodium salt, Guanosine 5′-diphosphate]
Activity [2]: active | EC50 [2]: 200 µM | Threshold [2]: 0.050 mM

Nc1nc2c(ncn2C2OC(COP(=O)(O)N3CCOCC3)C(O)C2O)c(=O)[nH]1 (centres unmarked) [Guanosine 5′-monophosphomorpholidate 4-morpholine-N,N′-dicyclohexylcarboxamidine salt]
Activity ([2]; +Alanine (20 mM)): active | Max. resp. % of IMP ([2]; maximum response in relation to the response with IMP, 20 mM alanine): 52.9 % of IMP | Max resp. (ΔF/F) ([2]; maximum response of the receptor, 20 mM alanine): 0.5121 ΔF/F | Threshold [2, 3]: 0.325 mM

Nc1nc2c(ncn2[C@@H]2O[C@H](COP(=O)(O)OP(=O)(O)OP(=O)(O)O)[C@@H](O)[C@H]2O)c(=O)[nH]1 [Guanosine 5′-triphosphate]
Activity [2]: active | EC50 [2]: 700 µM | Max resp. (ΔF/F) [2]: 1.8075 ΔF/F | Max. resp. % of IMP [2]: 145.5 % of IMP | Threshold [2]: 0.175 mM

Nc1nc2c(ncn2[C@@H]2O[C@H](COP(O)(O)=S)[C@@H](O)[C@H]2O)c(=O)[nH]1 [Guanosine-5′-monophosphorothioate]
Activity [2]: active | EC50 [2]: 10 µM | Max resp. (ΔF/F) [2]: 1.29 ΔF/F | Max. resp. % of IMP [2]: 103.8 % of IMP | Threshold [2]: 0.0025 mM | function as activators of T1R1/T1R3 (in words) [2]: activators of T1R1/T1R3

O=c1[nH]cnc2c1ncn2C1OC(COP(=O)(O)OP(=O)(O)O)C(O)C1O (centres unmarked) [Inosine 5′-diphosphate (IDP) sodium salt, inosine 5′-diphosphate (IDP) sodium salt]
Activity [2]: active | Max resp. (ΔF/F) [2]: 0.3 ΔF/F | Max. resp. % of IMP [2]: 33.3 % of IMP | Threshold [2, 3]: 0.1625 mM

CNc1ncnc2c1ncn2[C@H]1C[C@H](OP(=O)(O)O)[C@@H](COP(=O)(O)O)O1 [MRS 2179 ammonium salt hydrate, 2′-Deoxy-N^6-methyl adenosine 3,5′-diphosphate diammonium salt]
Activity [2]: active

O=P(O)(O)OC[C@H]1O[C@@H](n2cnc3c(NC4CCCC4)ncnc32)[C@H](O)[C@@H]1O [N6-Cyclopentyladenosine-5′-O-monophosphate]
Activity [2]: active | Threshold [2]: 0.013 mM

CNc1ncnc2c1ncn2[C@@H]1O[C@H](COP(=O)(O)O)[C@@H](O)[C@H]1O [N6-Methyladenosine 5′-monophosphate]
Threshold [2]: 0.020 mM | Activity ([2]; +Alanine (20 mM)): active

O=P(O)(O)OC[C@H]1O[C@@H](n2cnc3cncnc32)[C@H](O)[C@@H]1O [Purine riboside-5′-O-monophosphate, reference compound]
Activity [2]: active | Threshold [2]: 0.005 mM

NC(=O)c1ncn(C2OC(COP(=O)(O)O)C(O)C2O)n1 (centres unmarked) [Ribavirin 5′-Monophosphate]
Activity [2]: active | Threshold [2]: 0.175 mM

O=c1ccn([C@@H]2O[C@H](COP(=O)(O)O)[C@@H](O)[C@H]2O)c(=O)[nH]1 [UMP, uridine monophosphate, reference compound]
EC50 [2]: > 30000 µM

Nc1ncnc2c1ncn2[C@@H]1O[C@H](COP(=O)(O)O)[C@@H](O)[C@H]1O [adenosine monophosphate (AMP), adenosine monophosphate, reference compound]
EC50 [2]: 11 µM

Nc1ncnc2c1ncn2[C@@H]1O[C@H](COP(=O)(O)O)[C@@H](O)[C@H]1O [adenosine monophosphate]
Activity [2]: active | Threshold [2]: 0.003 mM

O=P(O)(O)OP(=O)(O)OP(=O)(O)OC[C@H]1O[C@@H](n2cnc3c(O)ncnc32)[C@H](O)[C@@H]1O [inosine triphosphate (ITP), inosine triphosphate]
EC50 [2]: 80 µM

O=c1[nH]c(=O)c2ncn([C@@H]3O[C@H](COP(=O)(O)O)[C@@H](O)[C@H]3O)c2[nH]1 [xanthosine monophosphate]
Activity [2]: active | Threshold [2]: 0.025 mM
